From patent EP0375557A1, “Glycine derivative process for preparation thereof, and pharmaceutical composition containing it” (TANABE SEIYAKU CO., LTD., priority 1988, dated 1990) come the findings set out here.

This assay concerns arachidonic acid-induced pulmonary embolism. The assay is described as follows: Inhibiting effect on arachidonic acid-induced pulmonary embolism (in vivo). The conditions noted are these: Mus musculus, 3 h; oral administration in aqueous CMC to fasted ddY-male mice; arachidonic acid (125 mg/10ml/kg) into tail vein three hours later; dose required to induce at least 15 % decrease in recovery time of locomotive activity vs control; read-out: Minimum effective dose. As for the experimental part: [Inhibiting effect on arachidonic acid-induced pulmonary embolism (in vivo)]
An aqueous carboxymethylcellulose (hereinafter referred to as "CMC") solution containing a test compound (20 ml/kg) was orally administered to ddY-male mice (8 mice per group) fasted overnight.

As to `CC(Cc1ccc(NCC(=O)O)cc1)NS(=O)(=O)c1ccc(Cl)cc1` (stereo not shown) [Example 2], the minimal effective dose amounted to 1 mg/kg.
In the case of `CC(CNS(=O)(=O)c1ccc(Cl)cc1)c1ccc(NCC(=O)NCCC(=O)O)cc1` (stereo not shown) [Example 3], the minimal effective dose was determined as 1 mg/kg.
As to `CC(CNS(=O)(=O)c1ccc(Cl)cc1)c1ccc(NCC(=O)NCCCC(=O)O)cc1` (stereo not shown) [Example 4], the minimal effective dose stood at 3 mg/kg.
As for `O=C([O-])CNc1ccc(CCNS(=O)(=O)c2ccccc2)cc1.[Na+]` [Known compound, Sodium N-[4-(2-benzenesulfonylaminoethyl)phenyl]glycinate, reference compound], the minimal effective dose turned out to be 10 mg/kg.
